Laboratory results taken from patent US5075308A, “Method for treating urinary obstruction” (Hitachi Chemical Co., Ltd., priority 1989, dated 1991).

Legend:
[1] = tested on: α1-adrenoceptor (thoracic aorta); assay: α1-adrenoceptor-blocking activity in rabbit thoracic aorta strips (noradrenaline contraction, Schild plot); settings: rabbit thoracic aorta helical strips, endothelium denuded; antagonism of noradrenaline contraction; mean (± standard deviation)
Procedure: (§1) Male albino rabbits weighing 2.2-2.5 kg were intravenously given pentobarbital (Nembutal® manufactured by Abbott) at a dose of 35 mg/kg body weight and sacrificed by exsanguination. The thoracic aorta and urinary bladder were rapidly excised and placed in modified Krebs solution. After removal of fat and unnecessary connective tissue, helical strips (3×15 mm in size) of the thoracic aorta and longitudinal strips (3×15 mm in size) of trigonum vesicae were prepared and used as specimen. The helical strips were carefully denuded of endothelium attached thereto in order to avoid any effect of the endothelium-derived vascular relaxing factors.
(§2) The preparations were vertically mounted in an organ bath filled with 20 ml of the modified Krebs solution (aerated with a gas mixture of 95 vol % of oxgen and 5 vol % of carbon dioxide and kept at 37° C.). The other end of each strip was attached to a transducer for tension measurement (the model TB-6llT manufactured by Nihon Kohden Kogyo K.K.). Changes in tension were recorded on a pen-writing oscillograph (the model Wi-68lG manufactured by Nihon Kohden Kogyo K.K.). Composition of the modified Krebs solution used herein was as follows: NaCl 115.0, KCl 4.7, MgSO4.7H2 O 1.2, CaCl2.2H2 O 2.5, KH2 PO4 1.2, NaHCO3 25.0 and glucose 10.0 (concentration in mM). The solution contained 10^-6 M propranolol, a […] (manufactured by Sigma). The loading tension was adjusted to attain a weight of 2 g for aorta and a weight of 1 g for trigone. The strips were allowed to equilibrate for at least 60 min. before initiation of the experiment, and during this period the modified Krebs solution in the organ bath was replaced every 20 min.
(§3) First, noradrenaline (manufactured by Sigma, 10^-6 -10^-4 M) was cumulatively added to each specimen to prepare a concentration-response curve to noradrenaline (to determine the 50% effective concentration ED50). […] The results were analyzed by Schild plotting to determine pA2 ([…] of concentration of the blocking agent necessary for parallel shift of the 50% contraction caused by noradrenaline to a concentration two fold as high).

[2] = molecular target: T1, α1-adrenoceptor (trigonum vesicae) (Oryctolagus cuniculus, UniProt O02824); assay: α1-adrenoceptor-blocking activity in rabbit trigonum vesicae strips (noradrenaline contraction, Schild plot); settings: rabbit trigonum vesicae longitudinal strips; antagonism of noradrenaline contraction; mean (± standard deviation); read-out: pA2, trigonum vesicae (converted)
T1 construct: longitudinal strips (3×15 mm in size) of trigonum vesicae; from tissue; host or cells: rabbit urinary bladder, longitudinal strips of trigonum vesicae
T1 sequence (O02824 1-466): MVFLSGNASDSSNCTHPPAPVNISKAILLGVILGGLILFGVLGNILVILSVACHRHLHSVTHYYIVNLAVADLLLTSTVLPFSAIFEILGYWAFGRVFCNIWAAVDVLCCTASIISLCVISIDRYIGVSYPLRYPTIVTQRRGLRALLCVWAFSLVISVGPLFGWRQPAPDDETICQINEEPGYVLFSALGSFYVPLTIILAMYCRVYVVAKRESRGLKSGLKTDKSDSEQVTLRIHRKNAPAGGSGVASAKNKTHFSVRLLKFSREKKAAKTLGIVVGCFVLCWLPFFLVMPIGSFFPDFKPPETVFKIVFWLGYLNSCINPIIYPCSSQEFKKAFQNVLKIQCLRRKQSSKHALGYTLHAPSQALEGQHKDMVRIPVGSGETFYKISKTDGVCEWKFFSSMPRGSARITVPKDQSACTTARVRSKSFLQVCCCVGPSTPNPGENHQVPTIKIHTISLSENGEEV
Procedure: as §1, §2, §3

[3] = tested on: α1-adrenoceptor (trigonum vesicae); assay: as above; settings: for Activity ratio: ratio of pA2 (calculated as concentration) with trigonum vesicae to pA2 with thoracic aorta
Procedure: as §1, §2, §3

Row | Kb [2] [nM] | SMILES | pA2, thoracic aorta [1] | Activity ratio [3] | pA2 comparison trigonum vesicae vs thoracic aorta (in words) [3]
1 | 8.51 | COc1ccccc1N1CCN(CCNc2nc(C)c(C(C)=O)c(C)n2)CC1 [Compound 1, 2-[2-(4-(2-methoxyphenyl)-l-piperazinyl)ethyl]amino-5-acetyl-4,6-dimethylpyrimidine] | 7.35 | 5.25 | 
2 | 5.01 | CCOC(=O)c1c(C)nc(NCCCCN2CCN(c3ccccc3OC)CC2)nc1C [Compound 2, 2-[4-(4-(2-methoxyphenyl)-l-piperazinyl)butyl]amino-5-ethoxycarbonyl-4,6-dimethylpyrimidine] | 7.47 | 6.76 | 
3 | 7.08 | COc1ccccc1N1CCN(CCNc2nc(C)cc(C)n2)CC1 [Compound 3, 2-[2-(4-(2-methoxyphenyl)-l-piperazinyl)ethyl]amino-4,6-dimethylpyrimidine] | 7.67 | 3.02 | 
4 | 5.25 | CCOC(=O)c1c(C)nc(NCCCN2CCN(c3ccccc3OC)CC2)nc1C [Compound 4, 2-[3-(4-(2-methoxyphenyl)-l-piperazinyl)propyl]amino-5-ethoxycarbonyl-4,6-dimethylpyrimidine] | 7.65 | 4.27 | 
5 | 5.25 | COc1ccccc1N1CCN(CCNc2nccc(Cl)n2)CC1 [Compound 5, 2-[2-(4-(2-methoxyphenyl)-l-piperazinyl)ethyl]amino-4-chloropyrimidine] | 7.83 | 2.82 | 
6 | 7.94 | COc1ccccc1N1CCN(CCNc2ncccn2)CC1 [Compound 6, 2-[2-(4-(2-methoxyphenyl)-l-piperazinyl)ethyl]amino-pyrimidine] | 7.74 | 2.29 | 
7 | 5.5 | CCOC(=O)c1c(C)nc(NCCN2CCN(c3ccccc3OC)CC2)nc1C [Compound 7, 2-[2-(4-(2-methoxyphenyl)-l-piperazinyl)ethyl]amino-5-ethoxycarbonyl-4,6-dimethylpyrimidine] | 7.92 | 2.19 | 
8 | 6.46 | COc1ccnc(NCCN2CCN(c3ccccc3OC)CC2)n1 [Compound 8, 2-[2-(4-(2-methoxyphenyl)-l-piperazinyl)ethyl]amino-4-methoxypyrimidine] | 7.92 | 1.86 | 
9 | 6.17 | COc1ccnc(NCCCCN2CCN(c3ccccc3OC)CC2)n1 [Compound 9, 2-[4-(4-(2-methoxyphenyl)-l-piperazinyl)butyl]amino-4-methoxypyrimidine] | 7.96 | 1.78 | 
10 |  | COc1cc2nc(N3CCN(C(=O)c4ccco4)CC3)nc(N)c2cc1OC [Prazosin, reference compound] | 8.55 |  | larger pA2 in the thoracic aorta than in the trigonum vesicae
